Assay results reported in patent US20240082271A1, “Methods of Treatment of Fibrotic Diseases” (PHOST’IN THERAPEUTICS, priority 2021, published 2024).

Columns and labels:
NIH3T3 fibroblasts = assay: Wound healing (scratch) inhibition test in presence of TGFβ; assay type: cell-based; conditions: 1 μM tested compound, 24 h, in presence of TGFβ 5 ng/ml
Method: NIH3T3 fibroblasts were seeded at 40 000 cells per cm2 in a 24 well plate, DMEM+10% FBS.
Before wound/treatment, cells were washed twice in DMEM without serum then incubated in the appropriate condition DMEM+2.5% FBS, TGFβ+/−, PST3.1+/−.
TGFβ 5 ng/ml; PST3.1 1 μM, n=6 wells per treatment.
At t0, cell layer is scratched using a needle and observed under microscope to take 3 pictures per well using a scale measure referential to measure width of the scratch using imageJ software.
After 24 h of incubation in the desired condition, scratch is measured under microscope by taking 3 pictures at the same scale using the same referential.
Data are treated by calculating percentage of closing.

[1] = tested on: SNx rats (renal fibrosis); assay: Kidney fibrosis model: 5/6 subtotal nephrectomy (SNx) rats, histological and immunohistochemical staining of kidney sections; assay type: in vivo, Sprague-Dawley rats
Source text: Male Sprague-Dawley rats underwent ⅚ subtotal nephrectomy (SNx) and were used as the kidney fibrosis model, since SNx rats developed tubulointerstitial fibrosis. During this surgery, the right kidney is removed and 2 of the 3 branches of the left renal artery are ligated in order to necrose ⅔ of the kidney. The control kidney is right kidney before nephrectomy. Tubulointerstitial renal fibrosis inevitably leads to renal function deterioration and failure, independently of the primary renal disease. It is worth noting that in SNx rats, plasmatic creatinine concentration increases from 25.7±1.3 μM to 120.0±33.0 μM. Sirius red staining highlights fibrosis by staining collagens in paraffin-embedded kidney tissue sections. Five micrometer-thick sections were cut and mounted on glass slides. Slides were deparaffinized and stained with Sirius red for evaluation of collagen localization. […] The sections were mounted in Entelan mounting medium and examined under microscope. For each sample, quantification was performed with Image J software on pictures taken from 10 fields of kidney sections at 200-fold magnification. The staining area was measured on kidney section fields. Immunohistochemical analyses of kidney sections were also performed using paraffin sections. The primary antibody, anti-Mgat5 was incubated overnight at 4° C. Revelation was performed with Universal vectastain ABC kit and ImmPACT AE following the instructions of suppliers, Vector Laboratories. Then, the sections were mounted in an aqueous mounting medium, VectaMount™ AQ and examined under microscope (Nikon Eclipse TE300). Quantification was carried out as for histological staining.
Compound 3.1 was orally administered to control rats and SNx rats (as above described) at 20 mg/kg daily per 28 days. A control was carried out with a vehicle (without compound 3.1) administered in the same manner as compound 3.1. Sprague Dawley rats will be used. The rats will be fed ad libitum and will be placed in a 12 hour light, 12 hour dark cycle. They will be divided 3 per cage. Some rats undergo ⅚ subtotal nephrectomy (SNx) to develop chronic kidney failure which will lead to the development of renal fibrosis. The 3.1a treatment was administered to the rats on the day of nephrectomy and continued for the entire protocol. It is delivered as a nanosuspension diluted in drinking water. Control rats receive the solvent alone (placebo). Histological and immunohistochemical methods were monitored as described in example 1.

[2] = tested on: STAM NASH model mice (liver fibrosis); assay: STAM NASH model mice, Sirius red-stained liver fibrosis area and tolerability; assay type: in vivo; conditions: for Sirius red positive area (fibrosis area) of liver sections: PO 6-9 wks of age, compound 3.1 15 mg/kg BID, Telmisartan 10 mg/kg QD, mean±SD, p<0.01 vs vehicle
Source text: The STAM model (developed and standardized by SMC Laboratories, Japan https://www.smccro-lab.com/) is a model that recapitulates the same disease progression as human nonalcoholic steatohepatitis (NASH) and hepatocellular carcinoma (HCC): in 25% of affected patients (i.e. 20%-25% of the adult population), nonalcoholic fatty liver disease progresses to NASH, which increases the risk for the development of cirrhosis, liver failure, and hepatocellular carcinoma. In patients with NASH, liver fibrosis is the main determinant of mortality (https://doi.org/10.1053/j.gastro.2019.11.311). In this model, male C57BL/6 mice aged two days are given a single dose of streptozotocin to reduce insulin secretory capacity. When the mice turn four weeks of age they start a high-fat diet feeding. This model has a background of late type 2 diabetes which progresses into fatty liver, NASH, fibrosis and consequently liver cancer (HCC). Compared to other NASH-HCC model mice, the disease progresses in a relatively short period of time, and liver cancer is developed in 100% of animals at 20 weeks of age.
C57BL/6JJmsSlc mice (14-day-pregnant female) were obtained from Japan SLC, Inc. (Japan). Two days after birth, NASH is induced in male mice by a single subcutaneous injection of 200 μg streptozotocin (STZ, Sigma-Aldrich, USA) solution and feeding with high fat diet (HFD, 57 kcal % fat, Cat #HFD32, CLEA Japan, Inc., Japan) after 4 weeks of age. Sterilized solid HFD is provided ad libitum, and replaced once every 2 days according to the manufacturer's instructions. Then, NASH model mice are divided into 3 randomized groups of 10 mice at 6 weeks of age based on their body weight the day before the start of treatment. The randomization was performed by body weight-stratified random sampling using Excel software. NASH model mice were stratified by their body weight to get SD and the difference in the mean weights among groups as small as possible.
Group 1: Vehicle (10 NASH mice orally administered with Placebo nanosuspension in a volume of 10 mL/kg twice daily from 6 to 9 weeks of age).
Group 2: Compound 3.1 (PST3.1) ((10 NASH mice orally administered with compound 3.1 nanosuspension at a dose of 15 mg/kg in a volume of 10 mL/kg twice daily (2*15 mg/kg/day) from 6 to 9 weeks of age).
Group 3: Telmisartan (10 NASH mice will be orally administered vehicle supplemented with Telmisartan at a dose of 10 mg/kg once daily in a volume of 10 mL/kg from 6 to 9 weeks of age). Vehicle and compound 3.1 were provided by Phost'in Therapeutics SAS. Telmisartan (Micardis®) was purchased from Boehringer Ingelheim GmbH (Germany).
After 3 weeks of treatment mice were sacrificed, whole liver were collected and washed with cold saline. Individual whole liver (parietal side and visceral side) was taken photos. Liver weight were measured and liver-to-body weight ratio were calculated. The left lateral lobes of livers will be separated and dissected as described in FIG. 6, and stored as described below: • a: Liver specimens were stored at −80° C. embedded in Optimal Cutting Temperature (O.C.T., Sakura Finetek Japan, Japan) compound. • b: Liver specimens were fixed in Bouin's solution (Sigma-Aldrich, Japan) for 24 hours. After fixation, these specimens were proceeded to paraffin embedding for Sirius red-staining. • c: Liver specimens were snap frozen in liquid nitrogen and stored at −80° C.
Sections were cut from paraffin blocks of liver tissue using the rotary microtome (Leica Microsystems). […]

MGAT5 activity = assay: L-PHA lectin staining of kidney sections as glycans marker of MGAT5 activity in SNx rats; assay type: in vivo, Sprague-Dawley rats; conditions: treated SNx rats, 20 mg/kg daily oral, 4 weeks
Source text: Male Sprague-Dawley rats underwent ⅚ subtotal nephrectomy (SNx) and were used as the kidney fibrosis model, since SNx rats developed tubulointerstitial fibrosis. During this surgery, the right kidney is removed and 2 of the 3 branches of the left renal artery are ligated in order to necrose ⅔ of the kidney. The control kidney is right kidney before nephrectomy. Tubulointerstitial renal fibrosis inevitably leads to renal function deterioration and failure, independently of the primary renal disease. It is worth noting that in SNx rats, plasmatic creatinine concentration increases from 25.7±1.3 μM to 120.0±33.0 μM. Sirius red staining highlights fibrosis by staining collagens in paraffin-embedded kidney tissue sections. Five micrometer-thick sections were cut and mounted on glass slides. […] For each sample, quantification was performed with Image J software on pictures taken from 10 fields of kidney sections at 200-fold magnification. The staining area was measured on kidney section fields. […] Quantification was carried out as for histological staining.
Compound 3.1 was orally administered to control rats and SNx rats (as above described) at 20 mg/kg daily per 28 days. […] Histological and immunohistochemical methods were monitored as described in example 1.
Glycosylation resulting from MGAT5 activity will be specifically measured by L-PHA lectin staining. […]

[3] = 15 mg/kg PO BID, 3 weeks of treatment

CC(=O)N[C@@H]1[C@@H](OCc2ccccc2)[C@H](OCc2ccccc2)[C@@H](COCc2ccccc2)O[P@@]1(=O)c1ccccc1 [Compound 2.2, N-((2S,3S,4S,5S,6R)-4,5-bis(benzyloxy)-6-((benzyloxy)methyl)-2-oxido-2-phenyl-1,2-oxaphosphinan-3-yl)acetamide]
% inhibition of wound healing (NIH3T3 fibroblasts): 28.7%

O=[P@@]1(c2ccc(Oc3ccccc3)cc2)O[C@H](COCc2ccccc2)[C@@H](OCc2ccccc2)[C@H](OCc2ccccc2)[C@H]1O [Compound 3.0, (2S,3S,4S,5S,6R)-4,5-bis(benzyloxy)-6-((benzyloxy)methyl)-3-hydroxy-2-(4-phenoxyphenyl)-1,2-oxaphosphinane 2-oxide]
% inhibition of wound healing (NIH3T3 fibroblasts): 23.0%

O=[P@@]1(c2ccccc2)O[C@H](COCc2ccccc2)[C@@H](OCc2ccccc2)[C@H](OCc2ccccc2)C1O (stereo partly shown) [Compound 3.1, 3-Hydroxy-4,5-bis-benzyloxy-6-benzyloxymethyl-2-phenyl-2-oxo-2λ5-[1,2]oxaphosphinane]
% inhibition of wound healing (NIH3T3 fibroblasts): 42.0% | fibrosis, Sirius red staining area of kidney sections ([1]; SNx rats treated, 20 mg/kg daily oral, 4 weeks): 5.8±1.2% | plasma/serum creatinine concentration ([1]; SNx treated rats vs SNx rats on placebo, 20 mg/kg daily oral, at 4 weeks): lower serum creatinine | treatment effect on collagen III in controls ([1]; control (non-nephrectomized) rats, 20 mg/kg daily oral, 4 weeks): no treatment effect | effect of treatment on fibrosis (Sirius red) ([1]; healthy animals or SNx, 4 weeks): no significant effect | collagen I expression, kidney immunostaining ([1]; treated SNx rats, 20 mg/kg daily oral, 4 weeks, p=0.014 vs untreated SNx): 1.3±0.3% | collagen IV expression, kidney immunostaining ([1]; treated SNx rats, 20 mg/kg daily oral, 4 weeks, p=0.015 vs untreated SNx): 6.4±0.3% | collagen III level, kidney immunostaining ([1]; treated SNx rats, 20 mg/kg daily oral, 4 weeks, p=0.27 vs untreated SNx): 4.0±0.3% | body weight loss [2, 3]: no body weight loss | clinical signs [2, 3]: no clinical signs | death [2, 3]: no death | Sirius red positive area (fibrosis area) of liver sections [2]: 0.47±0.12% | PHA-L staining of kidney sections (MGAT5 activity): 5.1±0.5%

CC1(C)OC[C@H](C2O[P@@](=O)(c3ccccc3)[C@H](NCc3ccccc3)[C@H]3OC(C)(C)O[C@@H]23)O1 (stereo partly drawn) [Compound 3.3, (3aR,6S,7S,7aS)-7-(benzylamino)-4-((R)-2,2-dimethyl-1,3-dioxolan-4-yl)-2,2-dimethyl-6-phenyltetrahydro-[1,3]dioxolo[4,5-d][1,2]oxaphosphinine 6-oxide]
% inhibition of wound healing (NIH3T3 fibroblasts): 29.8%

CC1(C)OC[C@H](C2O[P@](=O)(c3ccccc3)[C@@H](OC(=O)c3ccccc3)[C@H]3OC(C)(C)O[C@@H]23)O1 (stereo partly drawn) [Compound 4.2, (3aR,6R,7R, 7aS)-4-((R)-2,2-dimethyl-1,3-dioxolan-4-yl)-2,2-dimethyl-6-oxido-6-phenyltetrahydro-[1,3]dioxolo[4,5-d][1,2]oxaphosphinin-7-yl benzoate]
% inhibition of wound healing (NIH3T3 fibroblasts): 17.2%

c1ccc(CN[C@@H]2[C@@H](OCc3ccccc3)[C@H](OCc3ccccc3)[C@@H](COCc3ccccc3)O[P@@]2c2ccccc2)cc1 [Compound 4.6, (2S,3S,4S,5S,6R)-3-(benzylamino)-4,5-bis(benzyloxy)-6-((benzyloxy)methyl)-2-phenyl-1,2-oxaphosphinane]
% inhibition of wound healing (NIH3T3 fibroblasts): 29.3%

CCCc1nc2c(C)cc(-c3nc4ccccc4n3C)cc2n1Cc1ccc(-c2ccccc2C(=O)O)cc1 [Telmisartan, reference compound]
Sirius red positive area (fibrosis area) of liver sections [2]: 0.50±0.24%
